From ChEMBL document CHEMBL4665893, “Scalable Synthesis, In Vitro cccDNA Reduction, and In Vivo Antihepatitis B Virus Activity of a Phosphonomethoxydeoxythreosyl Adenine Prodrug” (J Med Chem, 2020) come the findings set out here.

Activity calls are given as the source filed them. The rule behind the calls is not given here.

Data set [1] is described as follows: Plasma concentration in C57BL/6 mouse at 6 mg/kg, po administered as single dose after 0.25 to 24 hrs by LC/MS/MS analysis. The format is ADME, organism-based. The note with it: in vivo, time 0.25-24 hrs.
A short description of data set [2]: Toxicity in HBV infected hydrodynamic injection C57BL/6 mouse model assessed as effect on body weight at 0.6 to 60 mg/kg, po QD for 6 days. The data set is classed as organism-based. The note with it: in vivo, 144 h, dose 0.6-60 mg/kg, time 6 day.
In data set [3] the test system is Hepatitis B virus. The data set is described as follows: Antiviral activity against adenovirus AdH294-WT harboring wild-type HBV genotype D accession #V01460 infected in human HepG2 cells assessed as reduction in viral replicative intermediate DNA level at 13 nM incubated for 5 days by Southern blot analysis (reference value: 100%). The format is functional. Details: scale not given: the % may be the effect or the level left. The note with it: time 5 day.

For data set [4], the system named is Hepatitis B virus. Briefly: Antiviral activity against ETV-resistant and adenovirus AdH294-7LR harboring wild-type HBV infected in human HepG2 cells assessed as reduction in viral replicative intermediate DNAs up to 100 uM incubated for 5 days by Southern blot analysis. The format is functional, organism-based. The note with it: dose microM <=100, time 5.0 day.

Data set [5] relates to Hepatitis B virus. Briefly: Antiviral activity against adenovirus AdH294-WT harboring wild-type HBV genotype D accession #V01460 infected in human HepG2 cells assessed as reduction in viral replicative intermediate DNA level at 1100 nM incubated for 5 days by Southern blot analysis (reference value: 100%). The format is functional. More on the design: scale not given: the % may be the effect or the level left. The note with it: time 5 day.

Data set [6] has as its system Hepatitis B virus. Briefly: Antiviral activity against adenovirus AdH294-WT harboring wild-type HBV genotype D accession #V01460 infected in human HepG2 cells assessed as reduction in viral replicative intermediate DNA level at 3300 nM incubated for 5 days by Southern blot analysis (reference value: 100%). The format is functional. The note with it: time 5 day. Details: scale not given: the % may be the effect or the level left.

Data set [7] relates to Hepatitis B virus. Briefly: Antiviral activity against ETV-resistant and adenovirus AdH294-7LR harboring wild-type HBV infected in human HepG2 cells assessed as viral replicative intermediate DNA level at 120 nM incubated for 5 days by Southern blot analysis (reference value: 100%). The format is functional. The note with it: time 5 day.
Data set [8] deals with Hepatitis B virus. Briefly: Antiviral activity against ETV-resistant and adenovirus AdH294-7LR harboring wild-type HBV infected in human HepG2 cells assessed as viral replicative intermediate DNA level at 13 nM incubated for 5 days by Southern blot analysis (reference value: 100%). The data set is classed as functional. The note with it: time 5 day.
For data set [9], the system named is Hepatitis B virus. The data set is described as follows: Antiviral activity against adenovirus AdH294-WT harboring wild-type HBV genotype D accession #V01460 infected in human HepG2 cells assessed as reduction in viral replicative intermediate DNA level at 40 nM incubated for 5 days by Southern blot analysis (reference value: 100%). The format is functional. The note with it: time 5 day. Details: scale not given: the % may be the effect or the level left.

Data set [10] has as its system Hepatitis B virus. The data set is described as follows: Antiviral activity against adenovirus AdH294-WT harboring wild-type HBV genotype D accession #V01460 infected in human HepG2 cells assessed as reduction in viral replicative intermediate DNA level at 4 nM incubated for 5 days by Southern blot analysis (reference value: 100%). Details: scale not given: the % may be the effect or the level left. The note with it: time 5 day. The data set is classed as functional.

The test system of data set [11] is Hepatitis B virus. The data set is described as follows: Antiviral activity against ETV-resistant and adenovirus AdH294-7LR harboring wild-type HBV infected in human HepG2 cells assessed as viral replicative intermediate DNA level at 4 nM incubated for 5 days by Southern blot analysis (reference value: 100%). The data set is classed as functional. The note with it: time 5 day.

In data set [12] the test system is Hepatitis B virus. The data set is described as follows: Antiviral activity against adenovirus AdH294-WT harboring wild-type HBV genotype D accession #V01460 infected in human HepG2 cells assessed as reduction in viral replicative intermediate DNA level at 370 nM incubated for 5 days by Southern blot analysis (reference value: 100%). The data set is classed as functional. More on the design: scale not given: the % may be the effect or the level left. The note with it: time 5 day.

Data set [13] has as its system Hepatitis B virus. Briefly: Antiviral activity against ETV-resistant and adenovirus AdH294-7LR harboring wild-type HBV infected in human HepG2 cells assessed as viral replicative intermediate DNA level at 40 nM incubated for 5 days by Southern blot analysis (reference value: 100%). The data set is classed as functional. The note with it: time 5 day.
Data set [14] deals with Hepatitis B virus. Briefly: Antiviral activity against ETV-resistant and adenovirus AdH294-7LR harboring wild-type HBV infected in human HepG2 cells assessed as viral replicative intermediate DNA level at 3300 nM incubated for 5 days by Southern blot analysis (reference value: 100%). The format is functional. The note with it: time 5 day.
Data set [15] deals with Hepatitis B virus. Briefly: Antiviral activity against adenovirus AdH294-WT harboring wild-type HBV genotype D accession #V01460 infected in human HepG2 cells assessed as reduction in viral replicative intermediate DNAs at 4 to 1000 nM incubated for 5 days by Southern blot analysis. The format is functional, organism-based. The note with it: time 5.0 day.
Data set [16] concerns Hepatitis B virus. Briefly: Antiviral activity against HBV infected hydrodynamic injection C57BL/6 mouse model assessed as reduction in serum HBV DNA level at 0.6 to 60 mg/kg, po QD for 6 days by qPCR analysis. The data set is classed as functional, organism-based. The note with it: dose mg/kg 0.6-60, time 6.0 day. For orientation: In qPCR the cycle at which signal appears reflects the starting amount.

Data set [17] relates to Hepatitis B virus. Briefly: Antiviral activity against ETV-resistant and adenovirus AdH294-7LR harboring wild-type HBV infected in human HepG2 cells assessed as viral replicative intermediate DNA level at 10000 nM incubated for 5 days by Southern blot analysis (reference value: 100%). The data set is classed as functional. The note with it: time 5 day.
The subject of data set [18] is Hepatitis B virus. Briefly: Antiviral activity against adenovirus AdH294-WT harboring wild-type HBV genotype D accession #V01460 infected in human HepG2 cells assessed as reduction in viral replicative intermediate DNA level at 120 nM incubated for 5 days by Southern blot analysis (reference value: 100%). The format is functional. Details: scale not given: the % may be the effect or the level left. The note with it: time 5 day.

Data set [19] deals with Hepatitis B virus. Briefly: Antiviral activity against ETV-resistant and adenovirus AdH294-7LR harboring wild-type HBV infected in human HepG2 cells assessed as viral replicative intermediate DNA level at 370 nM incubated for 5 days by Southern blot analysis (reference value: 100%). The data set is classed as functional. The note with it: time 5 day.
The test system of data set [20] is Hepatitis B virus. Briefly: Antiviral activity against adenovirus AdH294-WT harboring wild-type HBV genotype D accession #V01460 infected in human HepG2 cells assessed as reduction in viral replicative intermediate DNA level at 10000 nM incubated for 5 days by Southern blot analysis (reference value: 100%). The note with it: time 5 day. The data set is classed as functional. Details: scale not given: the % may be the effect or the level left.

In data set [21] the test system is Hepatitis B virus. Briefly: Antiviral activity against ETV-resistant and adenovirus AdH294-7LR harboring wild-type HBV infected in human HepG2 cells assessed as viral replicative intermediate DNA level at 1100 nM incubated for 5 days by Southern blot analysis (reference value: 100%). The format is functional. The note with it: time 5 day.
Data set [22] has as its system Hepatitis B virus. The data set is described as follows: Antiviral activity against HBV infected in human HepDE19 cells assessed as reduction in HBV cccDNA incubated for 9 days by qPCR analysis. The format is functional, organism-based. The note with it: HepDE19, 216 h.
Data set [23] in a line: Toxicity in human HepDE19 cells assessed as reduction in beta-actin level incubated for 9 days by qPCR analysis. The note with it: time 9 day. The data set is classed as cell-based.
The test system of data set [24] is Hepatitis B virus. The data set is described as follows: Antiviral activity against ETV-resistant and adenovirus AdH294-7LR harboring wild-type HBV infected in human HepG2 cells assessed as reduction in viral replicative intermediate DNAs at 4 to 1000 nM incubated for 5 days by Southern blot analysis. The data set is classed as functional, organism-based. The note with it: time 5.0 day.

The nature of data set [25]: Selectivity index, […] against HBV infected in human HepDE19 cells to CC50 for toxicity in human HepDE19 cells. The data set is classed as cell-based. The note with it: read-out: Ratio CC50/IC50.

In turn, `Nc1ncnc2c1ncn2[C@H]1C[C@@H](OCP(=O)(O)O)CO1` came in with a Cp in data set [1] of less than 1.01 ng/mL.

Take `C=C1[C@H](CO)[C@@H](O)C[C@@H]1n1cnc2c(=O)[nH]c(N)nc21.O` [ENTECAVIR]: the Activity entry in data set [2] is listed as “Non-Toxic”; with Hepatitis B virus [3], 25.7%; with Hepatitis B virus [5], 7%; in the data set on Hepatitis B virus [6] it was 4.6%; in the data set with Hepatitis B virus [7], 63.8%; in the data set with Hepatitis B virus [8], 92.2%. The Activity with Hepatitis B virus [9] amounted to 16%; in the data set on Hepatitis B virus [10], 46.4%; in the data set on Hepatitis B virus [11] it was 93.9%; in the data set with Hepatitis B virus [12], 10.5%; in the data set with Hepatitis B virus [13], 98.6%; in the data set on Hepatitis B virus [14] it was 35.5%. In addition, the Activity entry is “Dose-dependent effect” in the data set with Hepatitis B virus [16]; 37% in the data set with Hepatitis B virus [17]; 13.8% with Hepatitis B virus [18]; 60.4% in the data set with Hepatitis B virus [19]; 2.9% in the data set on Hepatitis B virus [20]; 51.2% in the data set on Hepatitis B virus [21]. For the same compound, the outcome in the data set on Hepatitis B virus [4] was inactive. Besides, in the data set with Hepatitis B virus [15], the outcome was Active.

As to `CC(C)OC(=O)[C@H](C)N[P@](=O)(CO[C@H](C)Cn1cnc2c(N)ncnc21)Oc1ccccc1` [TENOFOVIR ALAFENAMIDE], the Activity entry is “Non-Toxic” in data set [2]; 40.7% in the data set with Hepatitis B virus [3]; 1.3% in the data set on Hepatitis B virus [5]; 0% with Hepatitis B virus [6]; 11.3% in the data set with Hepatitis B virus [7]; 38.3% in the data set with Hepatitis B virus [8]. In addition, the Activity in the data set on Hepatitis B virus [9] came out at 18.1%; with Hepatitis B virus [10], 75.6%; in the data set on Hepatitis B virus [11], 93.7%; in the data set on Hepatitis B virus [12], 4.2%; in the data set on Hepatitis B virus [13], 21.4%; in the data set with Hepatitis B virus [14], 1.2%. Besides, the Activity result is “Dose-dependent effect” in the data set on Hepatitis B virus [16]; 0% in the data set on Hepatitis B virus [17]; 10.8% with Hepatitis B virus [18]; 5% in the data set with Hepatitis B virus [19]; 0% in the data set with Hepatitis B virus [20]; 2.6% in the data set on Hepatitis B virus [21]. Besides, the 50% inhibitory concentration (IC50) in the data set with Hepatitis B virus [22] is 40 nM. Moreover, the IC90 in the data set on Hepatitis B virus [22] (time 9 day) was more than 100 nM. In data set [23], the half-maximal cytotoxic concentration (CC50) at 216 h was 500 nM. Besides, the result in the data set with Hepatitis B virus [24] was Active. Also, the selectivity ratio in data set [25] stood at 13.

In general, IC50 refers to the concentration at which inhibition is half-maximal. Usually IC90 stands for the concentration needed for an effect of 90%. The CC50 is the concentration giving 50% cytotoxicity.
